Reference: ChEMBL document CHEMBL5518204, “Discovery and Proof of Concept of Potent Dual Polθ/PARP Inhibitors for Efficient Treatment of Homologous Recombination-Deficient Tumors” (J Med Chem, 2024)
Active and inactive are the calls of the source. The calls are words filed in the database; no cut-off is given here.

Experiments:
[1] = Stability in rat plasma assessed as half life; type: ADME, cell-free
[2] = Metabolic stability in mouse liver microsome assessed as intrinsic clearance; type: ADME; details: liver microsomes, read-out: CLH
[3] = Volume of distribution at steady state in Sprague-Dawley rat at 1 mg/kg, iv by LC-MS/MS analysis; type: ADME, organism-based; details: in vivo, read-out: Vdss
MDA-MB-231 [4] = test: Induction of apoptosis in human MDA-MB-231 cells at 2 uM incubated for 3 days by Annexin V-APC/7-AAD based flow cytometry analysis; type: functional; details: time 3 day
[5] = Metabolic stability in rat liver microsome assessed as half life; type: ADME; details: liver microsomes
[6] = MRT (0 to infinity) in Sprague-Dawley rat at 1 mg/kg, iv by LC-MS/MS analysis; type: ADME, organism-based; details: in vivo
[7] = target: Poly [ADP-ribose] polymerase 1 (Homo sapiens, UniProt P09874); details: dose 10.0 nM, time 90.0 min
[8] = Clearance in Sprague-Dawley rat at 1 mg/kg, iv by LC-MS/MS analysis; type: ADME, organism-based; details: in vivo
MDA-MB-231 [9] = test: Antiproliferative activity against 53BP1-knockdown human MDA-MB-231 cells incubated for 24 hrs by MTT assay; type: functional, cell-based
[10] = Antiproliferative activity against human MCF-10A cells assessed as inhibition of cell proliferation incubated for 5 days by MTT assay; type: toxicity, cell-based; details: human, MCF-10A cells
DNA polymerase theta = DNA polymerase theta (Homo sapiens, UniProt O75417); test: Inhibition of DNA polymerase theta (unknown origin) ATPase activity incubated for 60 mins in presence of ATP by ADP-glo kinase assay
HCC1937 = test: Antiproliferative activity against BRCA1-deficient human HCC1937 cells assessed as inhibition of cell proliferation incubated for 5 days by MTT assay; type: functional, cell-based; details: HCC1937, 120 h
[11] = Metabolic stability in human liver microsome assessed as intrinsic clearance; type: ADME; details: liver microsomes, read-out: CLH
[12] = Toxicity in BALB/c mouse xenografted with human MDA-MB-231 cells assessed as heart damage at 20 to 40 mg/kg, ip administered for 21 days by H and E staining based analysis; type: organism-based; details: in vivo, 504 h, dose 20-40 mg/kg, time 21 day
[13] = target: T1, Protein mono-ADP-ribosyltransferase PARP8 (Homo sapiens, UniProt Q8N3A8); test: Inhibition of PARP8 (unknown origin)
T1 sequence (Q8N3A8 whole entry): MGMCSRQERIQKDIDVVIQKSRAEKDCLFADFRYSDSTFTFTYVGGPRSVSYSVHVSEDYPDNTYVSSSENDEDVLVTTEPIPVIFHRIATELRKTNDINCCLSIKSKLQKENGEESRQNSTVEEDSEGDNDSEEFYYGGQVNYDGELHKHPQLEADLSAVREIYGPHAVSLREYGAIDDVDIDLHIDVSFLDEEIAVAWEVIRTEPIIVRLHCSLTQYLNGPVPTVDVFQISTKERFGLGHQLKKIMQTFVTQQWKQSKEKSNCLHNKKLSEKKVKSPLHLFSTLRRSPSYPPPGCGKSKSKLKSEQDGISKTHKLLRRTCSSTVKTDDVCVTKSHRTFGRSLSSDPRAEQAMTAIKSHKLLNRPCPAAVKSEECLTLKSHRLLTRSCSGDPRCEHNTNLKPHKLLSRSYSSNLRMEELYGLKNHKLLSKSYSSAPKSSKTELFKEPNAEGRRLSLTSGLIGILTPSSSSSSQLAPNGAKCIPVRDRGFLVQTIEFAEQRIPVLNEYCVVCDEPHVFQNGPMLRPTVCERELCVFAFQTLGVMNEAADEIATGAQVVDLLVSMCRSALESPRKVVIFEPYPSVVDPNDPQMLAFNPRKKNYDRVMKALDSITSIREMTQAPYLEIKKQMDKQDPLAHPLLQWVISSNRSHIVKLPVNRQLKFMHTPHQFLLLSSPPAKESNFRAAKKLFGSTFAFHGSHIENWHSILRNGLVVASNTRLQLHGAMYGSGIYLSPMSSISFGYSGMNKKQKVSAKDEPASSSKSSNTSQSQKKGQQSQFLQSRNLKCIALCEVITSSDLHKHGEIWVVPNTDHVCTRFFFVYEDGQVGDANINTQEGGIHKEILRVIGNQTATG

[14] = target: T2, Protein mono-ADP-ribosyltransferase TIPARP (Homo sapiens, UniProt Q7Z3E1); test: Inhibition of PARP7 (unknown origin)
T2 sequence (Q7Z3E1 whole entry): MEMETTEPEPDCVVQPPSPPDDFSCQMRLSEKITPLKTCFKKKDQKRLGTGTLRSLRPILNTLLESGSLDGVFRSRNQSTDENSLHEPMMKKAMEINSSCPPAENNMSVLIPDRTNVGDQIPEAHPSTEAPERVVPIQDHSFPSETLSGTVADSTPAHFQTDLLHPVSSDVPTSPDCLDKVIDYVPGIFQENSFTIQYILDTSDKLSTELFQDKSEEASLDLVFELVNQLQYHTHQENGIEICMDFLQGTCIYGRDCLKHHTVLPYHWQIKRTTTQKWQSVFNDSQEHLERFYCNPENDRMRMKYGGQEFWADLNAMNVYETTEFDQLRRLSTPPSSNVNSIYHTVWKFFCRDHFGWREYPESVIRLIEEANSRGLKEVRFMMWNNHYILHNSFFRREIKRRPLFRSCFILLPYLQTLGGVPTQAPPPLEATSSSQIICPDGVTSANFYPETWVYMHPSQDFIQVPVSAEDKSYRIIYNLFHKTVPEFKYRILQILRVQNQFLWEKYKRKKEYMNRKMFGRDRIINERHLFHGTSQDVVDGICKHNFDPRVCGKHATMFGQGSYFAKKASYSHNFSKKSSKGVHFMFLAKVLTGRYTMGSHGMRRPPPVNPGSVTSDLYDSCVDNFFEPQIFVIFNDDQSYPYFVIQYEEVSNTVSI

[15] = Stability in mouse plasma assessed as half life; type: ADME, cell-free
[16] = AUC (0 to infinity) in Sprague-Dawley rat at 1 mg/kg, iv by LC-MS/MS analysis; type: ADME, organism-based; details: in vivo
[17] = AUC (0 to t) in Sprague-Dawley rat at 1 mg/kg, iv by LC-MS/MS analysis; type: ADME, organism-based; details: in vivo
MDA-MB-436 [18] = test: Inhibition of colony formation in human MDA-MB-436 cells at 2 uM incubated for 9 days by crystal violet staining based analysis; type: functional, cell-based; details: time 9.0 day
SK-OV-3 = test: Antiproliferative activity against BRCA-proficient human SK-OV-3 cells assessed as inhibition of cell proliferation incubated for 5 days by MTT assay; type: functional, cell-based; details: SK-OV-3, 120 h
MDA-MB-436 [19] = test: Antiproliferative activity against human MDA-MB-436 cells transfected with SiRNA assessed as inhibition of cell proliferation incubated for 5 days by MTT assay; type: functional, cell-based; details: time 5.0 day

Chain of Poly [ADP-ribose] polymerase 1 (P09874 whole entry): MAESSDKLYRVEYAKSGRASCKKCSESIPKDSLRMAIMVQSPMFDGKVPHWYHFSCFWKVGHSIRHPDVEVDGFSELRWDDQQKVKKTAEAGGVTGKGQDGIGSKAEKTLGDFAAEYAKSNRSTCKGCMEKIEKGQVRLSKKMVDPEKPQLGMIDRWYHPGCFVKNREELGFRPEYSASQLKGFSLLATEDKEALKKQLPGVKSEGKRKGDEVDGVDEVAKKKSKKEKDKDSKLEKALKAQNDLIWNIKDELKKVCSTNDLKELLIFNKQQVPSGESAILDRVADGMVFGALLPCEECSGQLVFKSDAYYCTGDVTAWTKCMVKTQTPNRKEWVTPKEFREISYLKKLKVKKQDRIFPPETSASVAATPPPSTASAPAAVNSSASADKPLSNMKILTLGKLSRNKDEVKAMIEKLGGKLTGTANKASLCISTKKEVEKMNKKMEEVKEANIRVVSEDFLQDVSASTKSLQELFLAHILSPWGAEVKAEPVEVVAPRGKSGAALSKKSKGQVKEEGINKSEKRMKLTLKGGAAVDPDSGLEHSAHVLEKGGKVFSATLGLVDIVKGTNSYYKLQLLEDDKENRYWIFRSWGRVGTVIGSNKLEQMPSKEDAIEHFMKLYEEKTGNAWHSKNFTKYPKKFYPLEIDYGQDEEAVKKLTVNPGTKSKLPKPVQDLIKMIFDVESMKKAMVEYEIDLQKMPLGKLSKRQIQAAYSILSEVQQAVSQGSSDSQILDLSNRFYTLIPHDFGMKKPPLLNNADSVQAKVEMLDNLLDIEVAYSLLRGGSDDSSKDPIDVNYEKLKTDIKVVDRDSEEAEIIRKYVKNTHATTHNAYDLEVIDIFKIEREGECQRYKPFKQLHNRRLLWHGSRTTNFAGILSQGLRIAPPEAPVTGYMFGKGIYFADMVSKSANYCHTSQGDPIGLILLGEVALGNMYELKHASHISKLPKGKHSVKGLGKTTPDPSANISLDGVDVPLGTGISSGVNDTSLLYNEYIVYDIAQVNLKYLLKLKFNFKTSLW
Chain of DNA polymerase theta (O75417 whole entry): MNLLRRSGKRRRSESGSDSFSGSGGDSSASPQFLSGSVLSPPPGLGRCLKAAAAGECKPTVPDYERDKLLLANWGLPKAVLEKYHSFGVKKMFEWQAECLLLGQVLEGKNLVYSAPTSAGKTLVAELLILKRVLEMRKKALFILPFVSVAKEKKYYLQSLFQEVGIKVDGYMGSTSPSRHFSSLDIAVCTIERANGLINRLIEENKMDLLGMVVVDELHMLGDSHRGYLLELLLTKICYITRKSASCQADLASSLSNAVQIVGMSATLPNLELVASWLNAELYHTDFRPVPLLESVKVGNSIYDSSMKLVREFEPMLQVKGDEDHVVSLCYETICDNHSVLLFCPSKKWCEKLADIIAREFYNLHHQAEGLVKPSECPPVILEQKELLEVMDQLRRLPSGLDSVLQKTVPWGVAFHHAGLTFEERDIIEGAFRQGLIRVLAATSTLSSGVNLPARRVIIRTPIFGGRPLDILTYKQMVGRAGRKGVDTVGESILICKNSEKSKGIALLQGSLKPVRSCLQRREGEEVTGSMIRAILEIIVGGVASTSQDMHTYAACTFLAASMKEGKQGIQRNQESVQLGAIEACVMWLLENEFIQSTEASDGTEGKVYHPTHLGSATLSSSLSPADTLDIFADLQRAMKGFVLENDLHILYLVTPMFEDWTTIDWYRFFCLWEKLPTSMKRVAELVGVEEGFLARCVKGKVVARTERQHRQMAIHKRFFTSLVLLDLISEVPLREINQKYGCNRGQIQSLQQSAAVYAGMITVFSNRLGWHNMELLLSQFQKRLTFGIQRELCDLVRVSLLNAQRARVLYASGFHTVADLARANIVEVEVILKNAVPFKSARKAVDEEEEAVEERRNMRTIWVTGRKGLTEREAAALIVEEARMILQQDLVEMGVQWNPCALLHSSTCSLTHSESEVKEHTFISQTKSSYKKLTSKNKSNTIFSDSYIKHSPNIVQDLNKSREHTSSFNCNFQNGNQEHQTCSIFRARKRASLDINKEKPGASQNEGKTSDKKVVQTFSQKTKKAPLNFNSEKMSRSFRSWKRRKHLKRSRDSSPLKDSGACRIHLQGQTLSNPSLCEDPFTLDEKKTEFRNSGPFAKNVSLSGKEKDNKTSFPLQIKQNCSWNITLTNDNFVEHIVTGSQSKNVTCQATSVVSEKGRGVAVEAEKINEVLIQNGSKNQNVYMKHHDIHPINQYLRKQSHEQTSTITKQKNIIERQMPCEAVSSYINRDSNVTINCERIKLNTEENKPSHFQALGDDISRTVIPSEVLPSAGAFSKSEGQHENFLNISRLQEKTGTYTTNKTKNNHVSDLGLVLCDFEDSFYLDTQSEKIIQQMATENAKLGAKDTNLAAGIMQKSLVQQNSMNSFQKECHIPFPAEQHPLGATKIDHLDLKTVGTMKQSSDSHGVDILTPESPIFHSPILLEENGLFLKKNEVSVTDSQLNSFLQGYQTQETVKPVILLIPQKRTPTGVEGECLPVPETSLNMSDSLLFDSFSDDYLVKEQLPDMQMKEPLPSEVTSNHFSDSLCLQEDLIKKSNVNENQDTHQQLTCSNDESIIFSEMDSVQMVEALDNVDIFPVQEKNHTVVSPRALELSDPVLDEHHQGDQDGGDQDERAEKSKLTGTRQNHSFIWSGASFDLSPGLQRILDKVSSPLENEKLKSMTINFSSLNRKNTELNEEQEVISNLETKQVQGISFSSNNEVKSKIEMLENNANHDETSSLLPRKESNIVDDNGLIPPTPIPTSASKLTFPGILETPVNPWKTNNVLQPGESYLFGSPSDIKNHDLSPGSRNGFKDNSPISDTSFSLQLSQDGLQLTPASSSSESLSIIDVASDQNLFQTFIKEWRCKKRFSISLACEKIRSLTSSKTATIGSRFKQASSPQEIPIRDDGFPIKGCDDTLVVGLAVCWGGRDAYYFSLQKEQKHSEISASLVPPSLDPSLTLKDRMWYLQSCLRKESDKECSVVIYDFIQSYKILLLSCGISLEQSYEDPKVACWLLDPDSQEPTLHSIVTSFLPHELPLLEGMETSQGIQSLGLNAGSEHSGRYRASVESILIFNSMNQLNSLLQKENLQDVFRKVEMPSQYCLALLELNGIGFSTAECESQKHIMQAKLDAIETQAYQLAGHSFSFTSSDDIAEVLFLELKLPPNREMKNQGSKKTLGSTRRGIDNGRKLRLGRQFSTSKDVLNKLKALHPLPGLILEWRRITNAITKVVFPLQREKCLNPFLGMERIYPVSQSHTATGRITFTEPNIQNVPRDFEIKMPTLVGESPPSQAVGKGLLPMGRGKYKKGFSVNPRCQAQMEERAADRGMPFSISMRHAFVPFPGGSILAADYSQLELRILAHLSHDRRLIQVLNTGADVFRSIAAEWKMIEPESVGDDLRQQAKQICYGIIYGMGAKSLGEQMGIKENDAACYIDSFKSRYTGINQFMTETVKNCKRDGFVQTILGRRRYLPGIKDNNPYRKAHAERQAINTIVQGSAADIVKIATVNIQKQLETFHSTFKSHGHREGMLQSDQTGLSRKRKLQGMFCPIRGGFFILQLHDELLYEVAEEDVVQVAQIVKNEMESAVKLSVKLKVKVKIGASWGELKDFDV

half-life [1]: 38.5 h
CLint scaled [2]: 64.2 L/h/kg
Vd [3]: 1.12 L/kg
half-life [5]: 3.11 min
MRT inf [6]: 0.6 h
inhibition [7]: 71.1%
clearance [8]: 1.36 L/h/kg
IC50 (DNA polymerase theta): 0.0456 µM
IC50 (HCC1937): 20.9 µM
CLint scaled [11]: 40.9 L/h/kg
IC50 [13]: 2.93 µM
IC50 [14]: 0.194 µM
half-life [15]: 38.5 h
AUC(0-inf) [16]: 0.738 µg·h/mL
AUC(0-t) [17]: 0.724 µg·h/mL
IC50 (SK-OV-3): 18.9 µM
Structure (SMILES): COc1ccc(Cl)cc1-c1cc(C)ncc1C(=O)Nc1nnc(OCC2CCN(C(=O)c3cc(Cc4n[nH]c(=O)c5ccccc45)ccc3F)CC2)s1
Activity (MDA-MB-231 [4]): 26.7%
Activity (MDA-MB-231 [9]): Active
IC50 at 5 days [10]: > 80 µM
Activity [12]: Non-Toxic
inhibition (MDA-MB-436 [18]): Active
Activity (MDA-MB-436 [19]): Active
